Measured values from patent publication US9593305B2, “Differentiation of pluripotent stem cells” (Janssen Biotech, Inc., priority 2008, dated 2017).

Test system: H1 human embryonic stem cells
Experiment: MTS assay of cell proliferation during definitive endoderm differentiation (Example 23)
Format: cell-based
Conditions: 100 ng/ml growth factor with 8 ng/ml bFGF, with or without Wnt3a
Experimental: Stock cultures of human embryonic stem cells (H1 human embryonic stem cell line) were maintained in an undifferentiated, pluripotent state on reduced growth factor […]™ (BD Biosciences; Cat #356231)-coated dishes in MEF conditioned medium with passage on average every four days. Passage was performed by exposing cell cultures to a solution of 1 mg/ml dispase (Invitrogen, Cat #: 17105-041) for 5 to 7 minutes at 37° C. followed by rinsing the monolayer with MEF conditioned culture medium and gentle scraping to recover cell clusters. Clusters were centrifuged at low speed to collect a cell pellet and remove residual dispase. Cell clusters were split at a 1:3 or 1:4 ratio for routine maintenance culture or a 1:1 ratio for immediate assay. All human embryonic stem cell lines were maintained at passage numbers less than 50 and routinely evaluated for normal karyotypic phenotype and for absence of mycoplasma contamination. […]
At the conclusion of 24, 48, or 72 hours of culture, one set of assay plates was subjected to a MTS assay (Promega; Cat#G3581), following the manufacturer's instructions. In brief, 20 μl of MTS was added to each well, and assay plates were incubated at 37° C., 5% CO2 for four hours prior to taking OD490 readings. […]

| Substance | OD490 (MTS) over the three day assay, control treatments |
| --- | --- |
| GDF-8: growth factor GDF-8, also known as myostatin, member of the TGF-β family | decrease in OD490 relative to activin A treatment |
| Activin A: recombinant human activin A (PeproTech), TGF-beta family member | incremental increases in OD490 |
